The record followed here is patent publication US10722514B2 (FLX Bio, Inc., priority 2017, dated 2020).

The target of this assay is T1, recombinant full-length USP7 (Homo sapiens, UniProt Q93009).
T1 construct: A 25 μl reaction volume containing recombinant full-length USP7 (62 pM)
In words: USP7-mediated ubiquitin-rhodamine cleavage assay. Format: biochemical. The note with it: recombinant full-length USP7 62 pM; ubiquitin-rhodamine 100 nM; 30-minute incubation with compound, 1 hour reaction at room temperature; read-out: Potency: USP7 IC50. An outline of the steps:
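IC50 values came from fluorescence measured after a 1 h room-temperature reaction of 62 pM enzyme with 100 nM ubiquitin-rhodamine, following 30 min compound preincubation; fits used four parameters.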

Where a name gives a salt, the structure may show the parent alone.

T1 sequence (Q93009 whole entry): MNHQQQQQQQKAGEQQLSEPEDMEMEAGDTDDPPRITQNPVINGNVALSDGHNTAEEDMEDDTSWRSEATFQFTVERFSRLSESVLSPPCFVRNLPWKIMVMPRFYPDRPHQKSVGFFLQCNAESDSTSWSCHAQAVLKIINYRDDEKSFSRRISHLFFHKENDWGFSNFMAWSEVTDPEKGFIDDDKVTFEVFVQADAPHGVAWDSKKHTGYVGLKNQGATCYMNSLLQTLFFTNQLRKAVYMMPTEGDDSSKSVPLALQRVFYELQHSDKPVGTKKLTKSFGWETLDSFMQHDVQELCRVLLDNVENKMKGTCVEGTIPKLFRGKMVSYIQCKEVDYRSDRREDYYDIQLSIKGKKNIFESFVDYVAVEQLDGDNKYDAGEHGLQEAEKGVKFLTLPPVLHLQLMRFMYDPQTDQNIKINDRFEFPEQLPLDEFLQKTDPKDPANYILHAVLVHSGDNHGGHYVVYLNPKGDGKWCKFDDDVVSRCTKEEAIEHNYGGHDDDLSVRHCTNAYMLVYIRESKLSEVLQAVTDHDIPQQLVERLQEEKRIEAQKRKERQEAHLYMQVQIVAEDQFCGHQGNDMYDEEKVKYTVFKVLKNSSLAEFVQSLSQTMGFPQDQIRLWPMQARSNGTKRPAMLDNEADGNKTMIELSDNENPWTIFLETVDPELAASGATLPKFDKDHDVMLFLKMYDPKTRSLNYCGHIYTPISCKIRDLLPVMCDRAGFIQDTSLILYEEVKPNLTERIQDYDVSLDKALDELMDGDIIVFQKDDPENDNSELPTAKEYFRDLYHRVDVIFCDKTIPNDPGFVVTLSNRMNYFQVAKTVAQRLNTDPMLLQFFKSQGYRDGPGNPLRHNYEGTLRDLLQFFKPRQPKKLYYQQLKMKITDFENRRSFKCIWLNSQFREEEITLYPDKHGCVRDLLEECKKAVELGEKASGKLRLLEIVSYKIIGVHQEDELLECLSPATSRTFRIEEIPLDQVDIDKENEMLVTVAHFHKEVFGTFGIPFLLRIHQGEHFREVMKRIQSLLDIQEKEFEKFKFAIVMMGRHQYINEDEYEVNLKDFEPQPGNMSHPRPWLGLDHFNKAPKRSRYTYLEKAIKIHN

`Cc1cc(Cl)cc(-c2ccnc3cc(CN4C(=O)c5cccnc5C4=O)sc23)c1O[C@H]1CCCNC1` [Example 334, 6-[[7-[5-chloro-3-methyl-2-[[(3S)-3-piperidyl]oxy]phenyl]thieno[3,2-b]pyridin-2-yl]methyl]pyrrolo[3,4-b]pyridine-5,7-dione; 2,2,2-trifluoroacetic acid]: the IC50 is under 1 µM.
Then `Cc1cc(Cl)cc(-c2ccnc3cc(CN4C(=O)c5ccncc5C4=O)sc23)c1O[C@H]1CCCNC1` [Example 335, 2-[[7-[5-chloro-3-methyl-2-[[(3S)-3-piperidyl]oxy]phenyl]thieno[3,2-b]pyridin-2-yl]methyl]pyrrolo[3,4-c]pyridine-1,3-dione; 2,2,2-trifluoroacetic acid], with under 1 µM; and `Cc1cc(Cl)cc(-c2ccnc3cc(CN4C(=O)CCC4=O)sc23)c1O[C@@H]1CN(CC(C)(C)C)C[C@@H]1F` [Example 336, 1-[[7-[5-chloro-2-[(3R,4S)-1-(2,2-dimethylpropyl)-4-fluoro-pyrrolidin-3-yl]oxy-3-methyl-phenyl]thieno[3,2-b]pyridin-2-yl]methyl]pyrrolidine-2,5-dione], with under 1 µM.
Then `Cc1cc(Cl)cc(-c2ccnc3cc(Cn4c(=O)ccn(CC(F)(F)F)c4=O)sc23)c1O[C@@H]1CNCC[C@@H]1C` [Example 337, 3-[[7-[5-chloro-3-methyl-2-[[(3S,4S)-4-methyl-3-piperidyl]oxy]phenyl]thieno[3,2-b]pyridin-2-yl]methyl]-1-(2,2,2-trifluoroethyl)pyrimidine-2,4-dione], with under 1 µM; and `Cc1cc(Cl)cc(-c2ncnc3cc(CN4C(=O)CCC4=O)sc23)c1O[C@H]1CC[C@H](C)NC1` [Example 338, 1-[[4-[5-chloro-3-methyl-2-[[(3S,6S)-6-methyl-3-piperidyl]oxy]phenyl]thieno[3,2-d]pyrimidin-6-yl]methyl]pyrrolidine-2,5-dione dihydrochloride], with under 1 µM; and `Cc1cc(Cl)cc(-c2ncnc3cc(CN4C(=O)C5C(C4=O)C5(C)C)sc23)c1O[C@H]1CC[C@H](C)NC1` (stereo partly drawn) [Example 339, 3-[[4-[5-chloro-3-methyl-2-[[(3S,6S)-6-methyl-3-piperidyl]oxy]phenyl]thieno[3,2-d]pyrimidin-6-yl]methyl]-6,6-dimethyl-3-azabicyclo[3.1.0]hexane-2,4-dione dihydrochloride], with under 1 µM.
With `Cc1cc(Cl)cc(-c2ccnc3cc(CN4C(=O)C5C(C4=O)C5(C)C)sc23)c1O[C@@H]1CNCC[C@@H]1C` (stereo partly drawn) [Example 340, 3-[[7-[5-chloro-3-methyl-2-[[(3S,4S)-4-methyl-3-piperidyl]oxy]phenyl]thieno[3,2-b]pyridin-2-yl]methyl]-6,6-dimethyl-3-azabicyclo[3.1.0]hexane-2,4-dione] the figure was under 1 µM; with `Cc1cc(Cl)cc(-c2ccnc3cc(CN4C(=O)C5C(C4=O)C5(C)C)sc23)c1O[C@@H]1CNCC[C@H]1C` (stereo partly drawn) [Example 341, 3-[[7-[5-chloro-3-methyl-2-[[(3S,4R)-4-methyl-3-piperidyl]oxy]phenyl]thieno[3,2-b]pyridin-2-yl]methyl]-6,6-dimethyl-3-azabicyclo[3.1.0]hexane-2,4-dione], under 1 µM; with `Cc1cc(Cl)cc(-c2ccnc3cc(Cn4c(=O)ccn(CC(F)(F)F)c4=O)sc23)c1O[C@@H]1CNCC[C@H]1C` [Example 342, 3-[[7-[5-chloro-3-methyl-2-[[(3S,4R)-4-methyl-3-piperidyl]oxy]phenyl]thieno[3,2-b]pyridin-2-yl]methyl]-1-(2,2,2-trifluoroethyl)pyrimidine-2,4-dione], under 1 µM.
On to `Cc1cc(Cl)cc(-c2ccnc3cc(CN4C(=O)CCC4=O)sc23)c1OC1CCNC1(C)C` (stereo not drawn) [Example 343, 1-[[7-[5-chloro-2-(2,2-dimethylpyrrolidin-3-yl)oxy-3-methyl-phenyl]thieno[3,2-b]pyridin-2-yl]methyl]pyrrolidine-2,5-dione], for which the IC50 was under 1 µM.
Then `Cc1cc(Cl)cc(-c2ccnc3cc(Cn4c(=O)ccn(CC(F)(F)F)c4=O)sc23)c1OC1CCNC1(C)C` (stereo not drawn) [Example 344, 3-[[7-[5-chloro-2-(2,2-dimethylpyrrolidin-3-yl)oxy-3-methyl-phenyl]thieno[3,2-b]pyridin-2-yl]methyl]-1-(2,2,2-trifluoroethyl)pyrimidine-2,4-dione], with under 1 µM; and `Cc1cc(Cl)cc(-c2ccnc3cc(CN4C(=O)CCC4=O)sc23)c1OC1CNCC1(C)C` (stereo not drawn) [Example 345, 1-[[7-[5-chloro-2-(4,4-dimethylpyrrolidin-3-yl)oxy-3-methyl-phenyl]thieno[3,2-b]pyridin-2-yl]methyl]pyrrolidine-2,5-dione], with under 1 µM.
Consider `Cc1cc(Cl)cc(-c2ccnc3cc(Cn4c(=O)ccn(CC(F)(F)F)c4=O)sc23)c1OC1CNCC1(C)C` (stereo not drawn) [Example 346, 3-[[7-[5-chloro-2-(4,4-dimethylpyrrolidin-3-yl)oxy-3-methyl-phenyl]thieno[3,2-b]pyridin-2-yl]methyl]-1-(2,2,2-trifluoroethyl)pyrimidine-2,4-dione], for which the IC50 was under 1 µM.
As for `Cc1cc([N+](=O)[O-])cc(-c2ccnc3cc(Cn4c(=O)ccn(CC(F)(F)F)c4=O)sc23)c1OC1CCN(C(C)(C)C)CC1` [Example 347, 3-[[7-[2-[(1-tert-butyl-4-piperidyl)oxy]-3-methyl-5-nitro-phenyl]thieno[3,2-b]pyridin-2-yl]methyl]-1-(2,2,2-trifluoroethyl)pyrimidine-2,4-dione], the half-maximal inhibitory concentration (IC50) was under 1 µM.
In the case of `Cc1cc(Cl)cc(-c2ncnc3cc(CN4C(=O)C5C(C4=O)C5(C)C)sc23)c1O[C@@H]1CN(C)C[C@@H]1F` (stereo partly drawn) [Example 348, 3-[[4-[5-chloro-2-[(3R,4S)-4-fluoro-1-methyl-pyrrolidin-3-yl]oxy-3-methyl-phenyl]thieno[3,2-d]pyrimidin-6-yl]methyl]-6,6-dimethyl-3-azabicyclo[3.1.0]hexane-2,4-dione dihydrochloride], the half-inhibitory concentration (IC50) was under 1 µM.
In the case of `Cc1cc(Cl)cc(-c2ncnc3cc(CN4C(=O)C5C(C4=O)C5(C)C)sc23)c1O[C@@H]1CNC[C@@H]1C` (stereo partly drawn) [Example 349, 3-[[4-[5-chloro-3-methyl-2-[(3S,4S)-4-methylpyrrolidin-3-yl]oxy-phenyl]thieno[3,2-d]pyrimidin-6-yl]methyl]-6,6-dimethyl-3-azabicyclo[3.1.0]hexane-2,4-dione], the IC50 is under 1 µM.
With `Cc1cc(Cl)cc(-c2ncnc3cc(CN4C(=O)C5C(C4=O)C5(C)C)sc23)c1O[C@@H]1CNCC[C@@H]1C` (stereo partly drawn) [Example 350, 3-[[4-[5-chloro-3-methyl-2-[[(3S,4S)-4-methyl-3-piperidyl]oxy]phenyl]thieno[3,2-d]pyrimidin-6-yl]methyl]-6,6-dimethyl-3-azabicyclo[3.1.0]hexane-2,4-dione] the figure was under 1 µM.
Turning to `Cc1cc(Cl)cc(-c2ncnc3cc(CN4C(=O)C5CC5C4=O)sc23)c1O[C@@H]1CNC[C@@H]1F` (stereo partly drawn) [Example 351, 3-[[4-[5-chloro-2-[(3R,4S)-4-fluoropyrrolidin-3-yl]oxy-3-methyl-phenyl]thieno[3,2-d]pyrimidin-6-yl]methyl]-3-azabicyclo[3.1.0]hexane-2,4-dione dihydrochloride], the IC50 was under 1 µM.
With `Cc1cc(Cl)cc(-c2ncnc3cc(CN4C(=O)C5C(C4=O)C5(C)C)sc23)c1O[C@@H]1CCNC[C@H]1F` (stereo partly drawn) [Example 352, 3-[[4-[5-chloro-2-[[(3R,4R)-3-fluoro-4-piperidyl]oxy]-3-methyl-phenyl]thieno[3,2-d]pyrimidin-6-yl]methyl]-6,6-dimethyl-3-azabicyclo[3.1.0]hexane-2,4-dione; 2,2,2-trifluoroacetic acid] the figure was under 1 µM; with `Cc1cc(Cl)cc(-c2ncnc3cc(CN4C(=O)C5CC5C4=O)sc23)c1O[C@@H]1CN(C)C[C@@H]1F` (stereo partly drawn) [Example 353, 3-[[4-[5-chloro-2-[(3R,4S)-4-fluoro-1-methyl-pyrrolidin-3-yl]oxy-3-methyl-phenyl]thieno[3,2-d]pyrimidin-6-yl]methyl]-3-azabicyclo[3.1.0]hexane-2,4-dione dihydrochloride], under 1 µM; with `Cc1cc(Cl)cc(-c2ncnc3cc(CN4C(=O)C5C(C4=O)C5(C)C)sc23)c1O[C@@H]1C[C@H]2CN[C@@H]1C2` (stereo partly drawn) [Example 354, 3-[[4-[2-[[(1S,4R,5R)-3-azabicyclo[2.2.1]heptan-5-yl]oxy]-5-chloro-3-methyl-phenyl]thieno[3,2-d]pyrimidin-6-yl]methyl]-6,6-dimethyl-3-azabicyclo[3.1.0]hexane-2,4-dione dihydrochloride], under 1 µM.
Then `Cc1cc(Cl)cc(-c2ccnc3cc(CN4C(=O)C5CCC5C4=O)sc23)c1O[C@@H]1CN(C(=O)OC(C)(C)C)C[C@@H]1F` (stereo partly drawn) [Example 355, tert-butyl (3R,4S)-3-[4-chloro-2-[2-[(2,4-dioxo-3-azabicyclo[3.2.0]heptan-3-yl)methyl]thieno[3,2-b]pyridin-7-yl]-6-methyl-phenoxy]-4-fluoro-pyrrolidine-1-carboxylate; 2,2,2-trifluoroacetic acid], with under 1 µM; and `CCN1C[C@H]2C[C@@H]1[C@H](Oc1c(C)cc(Cl)cc1-c1ncnc3cc(CN4C(=O)C5C(C4=O)C5(C)C)sc13)C2` (stereo partly drawn) [Example 356, 3-[[4-[5-chloro-2-[[(1S,4R,5R)-3-ethyl-3-azabicyclo[2.2.1]heptan-5-yl]oxy]-3-methyl-phenyl]thieno[3,2-d]pyrimidin-6-yl]methyl]-6,6-dimethyl-3-azabicyclo[3.1.0]hexane-2,4-dione dihydrochloride], with under 1 µM; and `Cc1cc(Cl)cc(-c2ccnc3cc(CN4C(=O)C5C(C4=O)C5(C)C)sc23)c1OC1CC(N)C1` (stereo not drawn) [Example 357, 3-[[7-[2-(3-aminocyclobutyoxy)-5-chloro-3-methyl-phenyl]thieno[3,2-b]pyridin-2-yl]methyl]-6,6-dimethyl-3-azabicyclo[3.1.0]hexane-2,4-dione; 2,2,2-trifluoroacetic acid], with under 1 µM.

A word on the IC50: it is the concentration needed to halve the response being measured.
